Source: ChEMBL document CHEMBL1201862, “PubChem BioAssay data set” (2004)
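96-well plates; 48 h exposure; 5 concentrations. Endpoints by linear interpolation between flanking doses. Not reached: highest tested concentration assigned. The concentration for 50% growth inhibition is given as GI50.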 Activity calls are given as the source filed them. Cut-off read from the data, not from the text of the source: active = GI50 up to about 1.1 µM and inactive = higher.

What was measured:
Assay in all cases: NCI anticancer screen, dose series, 48 h
[1] = system: DLD-1
[2] = system: KM-20L2
[3] = system: M19-MEL
[4] = system: SNB-78
[5] = system: HOP-18
[6] = system: RXF 631
[7] = system: XF498
[8] = system: DMS-114
[9] = system: BT-549

Measured: GI50

CN1CC(=O)N2Cc3ccccc3-n3cccc3C2C1 (stereo unspecified)
inactive: [1] > 100 µM | [2] > 100 µM | [3] > 100 µM | [4] > 100 µM | [5] 4.92 µM | [6] > 100 µM | [7] > 100 µM

O=C1NC(O)n2c(=O)[nH]c(=O)n21 (stereo unspecified)
inactive: [1] > 100 µM | [2] > 100 µM | [3] > 100 µM | [4] > 100 µM | [5] > 100 µM | [6] > 100 µM | [7] > 100 µM

Cc1cccc(C)c1NC(=O)CCCC(=O)C1CCC/C1=N\NC(=O)C(=O)NN (stereo unspecified)
inactive: [8] > 100 µM | [1] > 100 µM | [2] > 100 µM | [4] > 100 µM | [5] > 100 µM | [6] > 100 µM | [7] > 100 µM

CN/N=C(/CCN1CCCC1)CC(c1ccccc1)c1c(O)c2ccccc2oc1=O (stereo unspecified)
inactive: [8] > 100 µM | [1] > 100 µM | [2] > 100 µM | [3] > 100 µM | [4] > 100 µM | [9] > 100 µM | [5] > 100 µM | [6] > 100 µM | [7] > 100 µM

CCOC(=O)/C=C/c1ccccn1
inactive: [8] > 100 µM | [1] > 100 µM | [3] > 100 µM | [4] > 100 µM | [5] > 100 µM | [6] > 100 µM | [7] > 100 µM

O=S1(=O)c2ccccc2NC(c2ccc3ccccc3c2)CC1c1ccccc1F (stereo unspecified)
inactive: [1] > 100 µM | [2] > 100 µM | [3] > 100 µM | [5] 22.1 µM | [6] > 100 µM | [7] > 100 µM

C=CN1C(=O)OC[C@@H]1c1ccccc1
inactive: [8] 34.5 µM | [1] > 100 µM | [2] > 100 µM | [3] > 100 µM | [4] > 100 µM | [5] > 100 µM | [6] > 100 µM | [7] 83 µM

COc1ccc2c(c1)C(CCN)C(=O)N2 (stereo unspecified)
inactive: [8] > 100 µM | [1] > 100 µM | [2] > 100 µM | [3] > 100 µM | [4] > 100 µM | [5] > 100 µM | [6] > 100 µM | [7] > 100 µM

O=C(NCCCCCCCCCCCCNC(=O)c1cnc2ccccc2n1)c1cnc2ccccc2n1
inactive: [8] 27.8 µM | [1] > 100 µM | [2] > 100 µM | [3] > 100 µM | [4] 76.9 µM | [5] 20.7 µM | [6] 99.5 µM
